For orientation: pIC50 means the IC50 on a negative log10 scale, so that one unit is a factor of ten.

pIC50: −log10 of the molar value.

This assay concerns the target T1, HIV Protease (Human immunodeficiency virus type 1 group M subtype B, UniProt P04585).
T1 construct: the protease expressed in Eschericia coli; made in house; host or cells: Escherichia coli
Briefly: Inhibition of microbial expressed HIV protease (peptide substrate cleavage, HPLC of products). As to conditions: protease expressed in Eschericia coli, pH 5.5, 30° C., 1 hour. Format: biochemical. How it is done: Assay for Inhibition of Microbial Expressed HIV Protease
Inhibition studies of the reaction of the protease expressed in Eschericia coli with a peptide substrate [Val-Ser-Gln-Asn-(betanapthyl)Ala-Pro-Ile-Val, 0.5 mg/mL at the time the reaction is initiated] were in 50 mM Na acetate, pH 5.5, at 30° C. for 1 hour. Various concentrations of inhibitor in 1.0 μl DMSO were added to 25 μl of the peptide solution in water. The reaction is initiated by the addition of 15 μl of 0.33 nM protease (0.11 ng) in a solution of 0.133M Na acetate pH 5.5 and 0.1% bovine serum albumin. The reaction was quenched with 160 μl of 5% phosphoric acid. Products of the reaction were separated by HPLC (VYDAC wide pore 5 cm C-18 reverse phase, acetonitrile gradient, 0.1% phosphoric acid). The extent of inhibition of the reaction was determined from the peak heights of the products.
`O=C(N[C@H]1c2ccccc2C[C@H]1O)[C@H](Cc1ccccc1)C[C@H](O)CNC(=O)[C@H]1[C@H](C(=O)N(Cc2ccccc2)Cc2ccccc2)[C@@H]2C=C[C@H]1C2` [C] showed a negative-log IC50 (pIC50) of 10.60.
`CC(C)(C)NC(=O)[C@H]1[C@H](C(=O)NC[C@@H](O)C[C@@H](Cc2ccccc2)C(=O)N[C@H]2c3ccccc3C[C@H]2O)[C@H]2C=C[C@@H]1C2` [B] showed a negative-log IC50 (pIC50) of 7.08. Against the preceding molecule, the pIC50 is 3.52 log units lower.
For `O=C(N[C@H]1c2ccccc2C[C@H]1O)[C@H](Cc1ccccc1)C[C@H](O)CNC(=O)[C@H]1[C@H](C(=O)NCCc2ccccc2)[C@@H]2C=C[C@H]1C2` [A] the value was 10.26.
